Article PMC12250347, “Calcium-dependent pathway as a primary cause of hypoxic RGC damage in monkey retinal explants” (PLOS One, 2025)
Entries after “also recorded” stand apart in the source; their conditions may differ.

Tests used:
[1] = tested on: purified porcine calpain 2; test: Calpain-Glo Protease Assay; format: biochemical; conditions: 5 mM CaCl2, 10 min, room temperature; mean of two experiments
Excerpt: The porcine kidney was obtained from DART Co., Ltd. as part of a program aimed at the effective utilization of livestock by-products in Hokkaido, Japan. The procurement process followed ethical guidelines from Livestock Industry Bureau MAFF-J (ministry of agriculture, forestry and fisheries of Japan) for farm animal use, ensuring compliance with relevant regulations. Two porcine kidneys were rapidly frozen after removal, trimmed free of excess tissue or renal pelvis, and cut into small pieces (approximately 2 × 2 cm) before they thawed. About 250 g of these pieces were homogenized in 1200 mL of ice-cold 20 mM Tris-HCl (pH 8.0) with 5 mM ethylenediaminetetraacetic acid (EDTA), 0.1% 2-mercaptoethanol (2-ME), 0.1 mg/mL Pefabloc SC (MilliporeSigma, Burlington, MA, USA), 40 µg/mL bestatin, and 4 µg/mL pepstatin in a Waring blender HGBSS (Waring; Stamford, CT, USA) at 19,000 rpm using several bursts of 10 sec each with 20 sec cooling periods between each burst. The homogenate was centrifuged at 25,000 × g for 15 min at 4°C, and the supernatant was filtered through glass wool and a 5 µm filter (Merck) to remove floating lipids. The purification procedure was performed according to the method of Thompson and Goll with some minor modifications: the DEAE-cellulose and the DEAE-TSK ToyoPearl 650S columns were substituted with DEAE sepharose fast flow (Merck) and TSKgel DEAE-5PW (30) (Tosoh; Tokyo, Japan) columns, respectively. After purification, calpain-2 was dialyzed, and glycerol was added for freeze-thaw protection. The final buffer formulation was 20 mM imidazole, 5 mM 2-ME, 1 mM EDTA, 1 mM EGTA, and 20% glycerol.
(§1) For measurement of inhibitory activities against calpains in vitro, Calpain-Glo Protease Assay (Promega; Madison, WI, USA) was performed using human erythrocyte calpain 1 (MilliporeSigma) and purified porcine calpain 2. Briefly, 24 µL of each calpain diluted with 20 mM Tris-HCl (pH 7.4), 1 µL of each inhibitor, and 25 µL of reaction buffer including CaCl2 in a 96-well plate was incubated for 10 min at room temperature. The final concentration of CaCl2 in the reaction solution was 5 mM. The luminescence was measured using a microplate reader (GloMax Discover System; Promega). IC50 values from two independent experiments were averaged.

[2] = molecular target: T1, human erythrocyte calpain 1 (Homo sapiens, UniProt P07384); test: Calpain-Glo Protease Assay; format: biochemical; conditions: 5 mM CaCl2, 10 min, room temperature; mean of two experiments
T1 construct: human erythrocyte calpain 1 (MilliporeSigma); purchased MilliporeSigma; host or cells: human erythrocytes
T1 sequence (P07384 1-714): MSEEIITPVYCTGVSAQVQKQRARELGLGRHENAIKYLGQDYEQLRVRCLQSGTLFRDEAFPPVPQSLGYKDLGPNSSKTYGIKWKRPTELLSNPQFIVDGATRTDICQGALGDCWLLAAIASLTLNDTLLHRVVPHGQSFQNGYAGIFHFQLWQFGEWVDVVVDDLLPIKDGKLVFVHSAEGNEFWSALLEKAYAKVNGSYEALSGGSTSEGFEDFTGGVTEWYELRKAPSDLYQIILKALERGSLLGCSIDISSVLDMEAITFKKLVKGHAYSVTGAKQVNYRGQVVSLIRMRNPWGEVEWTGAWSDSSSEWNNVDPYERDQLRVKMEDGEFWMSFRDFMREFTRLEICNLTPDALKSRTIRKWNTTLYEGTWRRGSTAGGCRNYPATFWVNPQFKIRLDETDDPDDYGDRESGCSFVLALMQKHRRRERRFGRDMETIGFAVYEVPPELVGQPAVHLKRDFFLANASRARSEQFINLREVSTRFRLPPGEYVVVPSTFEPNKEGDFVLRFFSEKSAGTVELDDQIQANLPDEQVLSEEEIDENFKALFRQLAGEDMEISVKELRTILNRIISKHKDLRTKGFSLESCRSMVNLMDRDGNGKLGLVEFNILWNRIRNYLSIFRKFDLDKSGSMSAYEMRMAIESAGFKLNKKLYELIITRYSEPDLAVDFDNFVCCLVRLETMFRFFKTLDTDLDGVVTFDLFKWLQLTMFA
T1 sequence (P04632 1-268 partner): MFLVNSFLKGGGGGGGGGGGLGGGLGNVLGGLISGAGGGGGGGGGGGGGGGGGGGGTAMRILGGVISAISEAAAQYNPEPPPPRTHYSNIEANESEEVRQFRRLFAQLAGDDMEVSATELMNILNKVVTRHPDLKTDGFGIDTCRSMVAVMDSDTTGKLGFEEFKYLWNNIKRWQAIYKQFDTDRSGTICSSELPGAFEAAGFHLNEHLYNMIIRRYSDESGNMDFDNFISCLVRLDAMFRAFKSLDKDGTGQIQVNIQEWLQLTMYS
Experimental: as §1

[3] = tested on: calpains 1 and 2 in monkey retinal lysate; test: In vitro inhibitory assay of calpains from retinal lysate (CaCl2, immunoblotting); format: biochemical; conditions: non-cultured monkey retina lysate, 10 mM CaCl2, 2 hr, 37°C; inhibitor at 1, 10 and 100 µM
Experimental: (§2) Each retinal explant was sonicated in RIPA Lysis and Extraction Buffer (Thermo Fisher Scientific), with protease inhibitors cocktail (Complete Mini-EDTA-free; MilliporeSigma). Protein concentrations in lysates were measured by BCA assay (Pierce BCA Protein Assay Kit, Thermo Fisher Scientific) using bovine serum albumin as a standard. For immunoblotting, 5 μg of each sample was loaded and run on 4% to 12% gradient or 10% SDS-PAGE gels (NuPAGE Bis-Tris Protein Gels, Thermo Fisher Scientific) with 2-(N-morpholino)ethanesulfonic acid buffer or 3-(N-morpholino) propanesulfonic acid buffer (Thermo Fisher Scientific). Proteins were then electrotransferred to a polyvinylidene fluoride membrane (MilliporeSigma) at 100 V for 60 min or 1.5 hr. Membranes were then blocked with 5% skim milk in Tris-buffer saline (Bio-Rad Laboratories, Hercules, CA, USA) containing 0.05% Tween 20. Each membrane was probed with primary antibodies against α-spectrin (1:2000 dilution, Enzo Life Sciences, Farmingdale, NY, USA), SBDP150 (1:1000 dilution, Senju Pharmaceutical), calpain 1 (1:1000 dilution, Thermo Fisher Scientific), calpain 2 (1:500, GeneTex, Irvine, CA, USA), cathepsin K (1:500 dilution, Abcam), and β-actin (1:1000 dilution, Merck). For calpain 1, immunoreactivity was visualized using a secondary antibody conjugated to alkaline phosphatase and the AP Conjugate Substrate Kit (Bio-Rad Laboratories). For other proteins, immunoreactivities were visualized using secondary antibodies conjugated with rabbit (Santa Cruz Biotechnology) or mouse horseradish peroxidase enzyme (Cytiva, Wilmington, DE, USA) and ECL Plus detection reagents (Cytiva). Images of the membranes were captured with FluorChem FC2 imager (Cell Biosciences, Santa Clara, CA, USA). The conversion of pro-cathepsin K (38 kDa) to its mature form (27 kDa) was used as an indicator of cathepsin K activation.
To confirm the isozyme specificities of calpain inhibitors in vitro, non-cultured monkey retinas were sonicated in a buffer containing 20 mM Tris (pH 7.5), 5 mM EGTA, 5 mM EDTA, 2 mM DTE. […]

[4] = tested on: RGCs in monkey retinal explants; test: PI staining and RGC counting in retinal explants under hypoxia/reoxygenation; format: cell-based, rhesus macaques (Macaca mulatta); conditions: H16R8; calcium chelator at higher concentration (BAPTA 10 mM; BAPTA-AM 0.5 mM, 2 hr before hypoxia)
Excerpt: Globes were obtained from rhesus macaques (Macaca mulatta) at 1–7 years of age from the Oregon National Primate Research Center (Beaverton, OR, USA). The wide range of ages was unavoidable because they became available from experiments that were unrelated to the present studies. These eyes were acceptable for the purpose of our experiments. The eyes were dissected within 5 hr after death, and excised eyes were soaked in cold Hanks’ balanced salt solution (HBSS; Corning, NY, USA) or Dulbecco’s phosphate-buffered saline (DPBS; Corning). Experimental animals were handled in accordance with the Research in Vision and Ophthalmology Statement for the Use of Animals in Ophthalmic and Vision Research and with the Guiding Principles in the Care and Use of Animals (Department of Health Education and Welfare Publication National Institutes of Health 80−23).
(§3) Retina explant culture was performed as described in our previous report, except for the induction of hypoxia. Briefly, a hypoxic chamber (Coy Laboratory Products, Grass Lake, MI, USA) was controlled at 0.3% oxygen with a 95% N2/5% CO2 gas mixture. Retinas were dissected into fan-shaped explants with 6 or 7 petals (> 5 mm) in HBSS. Each explant was placed with the RGC side facing up on a Millicell organotypic standing insert (0.4 μm, 30 mm diameter, MilliporeSigma) in six-well, culture plates. They were cultured for 2 hr at 37°C under 95% N2/5% CO2 in Neurobasal-A medium supplemented with B27, N2 supplements, 2 mM L-glutamine (Thermo Fisher Scientific, Waltham, MA, USA), and 100 μg/mL primocin (Invivogen, San Diego, CA, USA). Retinal explants were then chamber-cultured under hypoxic conditions for 16 hr in a culture medium with 0.5 mM glucose, under 0.3% oxygen. The retinas were then re-oxygenated for 8 hr in a culture medium with 5.5 mM glucose. Normoxic control retinas were cultured for 24 hr in a culture medium with 5.5 mM glucose. When present, calpain inhibitors (SNJ-1945, PD-151746, C2I, and ABT-957) and cathepsin inhibitors (Odanacatib and SID26681509) in 0.1% DMSO were used at the final concentration of 10 or 100 μM in the medium. BAPTA (Thermo Fisher Scientific) and BAPTA-AM (Thermo Fisher Scientific) were also used at a final concentration of 3 or 10 mM or a final concentration of 100 or 500 μM, respectively.
(§4) All inhibitors and BAPTA were treated simultaneously with hypoxia induction, and BAPTA-AM treatment was 2 hr before hypoxia induction.
To assess the disruption of membrane barrier function, propidium iodide (PI) was utilized. Following hypoxia/reoxygenation treatment, retinal explants were incubated for 20 min in a medium containing a final concentration of 2 μg/ml of PI. For quantitative analysis, the RGC marker, RNA-binding protein with multiple splicing (RBPMS) was used at a 1:100 dilution (PhosphoSolutions, Aurora, CO, USA). RBPMS-positive and PI-positive cells in the ganglion cell layer were counted in 2 images from 2 square areas (775 × 775 μm each) located 3–5 mm and 5–7 mm away from the tips of the fan-shaped retinal flat mounts. The percentage of PI-positive RGCs was calculated as [the number of PI and RBPMS-double positive cells/the number of all RBPMS-positive cells] × 100.

[5] = tested on: calpain-specific SBDP150 in nerve fiber layer (NFL); test: SBDP150 immunostaining of flat-mounted retinal explants under hypoxia/reoxygenation; format: cell-based, rhesus macaques (Macaca mulatta); conditions: H16R8
Experimental: as §3, §4
Formalin-fixed retinal explants were incubated overnight at −30°C in 1: 4 dilutions of DMSO-ethanol to promote antibody penetration. The explants underwent two cycles of freezing and thawing between −80°C and room temperature in 100% ethanol for 20 min. The retinas were then rehydrated in 70%, 50%, and 15% ethanol and PBS for 20 min each, followed by overnight incubation with 0.2% Triton X-100. The samples were stained with antibodies specific for calpain-specific SBDP150 [8] (1:100 dilution, Senju Pharmaceutical) and β-III tubulin (a neuron marker, 1:500 dilution, Merck). The nerve fiber layer (NFL) was observed approximately 5 mm from the tips of the fan-shaped retinal flat mounts. Confocal images were taken using a model LSM 880 spectral confocal system with a 20x 0.8 NA lens (Carl Zeiss, Oberkochen, Germany).

[6] = tested on: calpain 1 activation and proteolysis of α-spectrin; test: Immunoblotting of retinal explants under hypoxia/reoxygenation; format: cell-based, rhesus macaques (Macaca mulatta); conditions: H16R8; BAPTA 3 or 10 mM, BAPTA-AM 0.1 or 0.5 mM
Experimental: as §3, §4, §2

IC50 [1]	IC50 [2]	SMILES	Effect on calcium-induced activation (autolysis) of calpains 1 and 2 and SBDP150 in retinal lysate [3]	Effect on RGC damage (PI-positive RGCs) [4]	Effect on SBDP150 staining in NFL ([5]; BAPTA-AM 500 μM)	Effect on activation of calpain 1 and proteolysis of α-spectrin (immunoblot) [6]	Effect on SBDP150 staining in NFL ([5]; BAPTA at lower concentration (3 mM))
429 nM	403 nM	O=C(NC1CC1)C(=O)C(Cc1ccccc1)NC(=O)[C@H]1CCC(=O)N1Cc1ccccc1 (stereo partly drawn) [ABT-957]	inhibited the activation of both calpain 1 and calpain 2 in a dose-dependent manner	–	–	–	–
–	–	CC(=O)OCOC(=O)CN(CC(=O)OCOC(C)=O)c1ccccc1OCCOc1ccccc1N(CC(=O)OCOC(C)=O)CC(=O)OCOC(C)=O [BAPTA-AM]	–	partial	inhibited the increase in SBDP150 staining	mitigated	–
–	–	O=C(O)CN(CC(=O)O)c1ccccc1OCCOc1ccccc1N(CC(=O)O)CC(=O)O [BAPTA]	–	almost completely inhibited	–	mitigated; also recorded: inhibited the autolytic activation of calpain 1	reduced SBDP150 staining
249 nM	150 nM	O=C(O)/C(S)=C/c1c[nH]c2ccc(F)cc12 [PD-151746]	also inhibited calpain activation, but not as strongly as SNJ-1945 and ABT-957	–	–	–	–
